Laboratory results as given in patent publication US20260273020A1, “OBESTATIN FOR USE AS ANTINEOPLASTIC AGENT IN THE TREATMENT OF PANCREATIC CANCER” (SERVIZO GALEGO DE SAÚDE, priority 2023, published 2026).

Test system: KPC FC1242 cells injected in the pancreas
Assay: Orthotopic syngeneic mice model of pancreatic cancer: tumour growth
Format: in vivo, C57BL/6J mice
Procedure: FIG. 2. Schematic representation of an orthotopic syngeneic mice model established for the determination of obestatin action on tumoral development. In brief, KPC FC1242 (1×10E6) cells were injected in the pancreas of C57BL/6J mice. After nine days of tumoral growing, the mice were randomly assigned to the different groups (n=4/group) and treated with vehicle [NaCl, 0.9% (w/v)] or obestatin (500 nmol/Kg/72 h) via ALZET® osmotic micropumps for five days. Mice without tumoral cells treatment were utilized as healthy controls.
FIG. 3. Effect of obestatin treatment on tumoral growing. The KPC FC1242 cells (1×10E6) were injected into the pancreas of C57BL/6J mice. After nine days of tumour post-injection, mice were treated with vehicle [NaCl, 0.9% (w/v)] or obestatin (500 nmol/Kg/72 h) via ALZET® osmotic micropumps for five days. Mice without tumoral cells treatment were utilized as healthy controls (n=4). Pancreases/tumours were collected, measured and weighted at day 14 after tumour implantation. Results are expressed as mean mean±SE (*, #, P<0.05). […]
Day 1: Implantation of KPC FC1242 Cells into Mouse Pancreas • 1. […] The cells were kept cold, on ice, until ready to inject. • 2. […] The mouse was monitored until no longer mobile and breathing has slowed. […] Then, the mouse was ready for hair removal. • 3. […]

obestatin
reduction in the pancreatic tumour growing in weight (mouse obestatin 500 nmol/Kg/72 h via osmotic micropumps for five days, from day 9 after tumour injection): 35.8±6.9%
size and weight of tumours vs control or vehicle-treated groups (obestatin-treated group, 500 nmol/Kg/72 h): significantly smaller
